{"source": "paper PMC4341462", "about": "“Human RNASET2 derivatives as potential anti-angiogenic agents: actin binding sequence identification and characterization” (Oncoscience, 2014)", "key": {"[1]": {"molecular_target": "T1, Actin from rabbit muscle (Sigma A2522) (Oryctolagus cuniculus, UniProt P68135)", "T1 construct": "purchased Sigma A2522; host or cells: rabbit muscle (tissue-purified)", "assay": "Surface plasmon resonance (BIAcore 3000) of actin binding", "details": "actin on CM5 chip, amine coupling, 5 concentrations, 10 μl/min, 25°C", "method": "SPR was performed on a BIAcore 3000 instrument (BIAcore, Uppsala, Sweden). Actin was diluted in 100 mM CH3COONa pH 4.6 to a final concentration of 20μg/ml (200μl total) resulting in ~1ng immobilized actin on a CM5 BIAcore sensor chip (GE Healthcare Bio-Sciences AB) using the standard BIAcore amine coupling chemistry protocol. The CM5 chip allows four separate flow cells to be operated in the BIAcore 3000 instrument used in these experiments. Coupling is achieved by activating the surface of the sensor chips with equal volumes of 50 mM N-hydroxysuccimide (NHS)/200 mM Nethyl-N-(3-[…])-carboiimide (EDC) (BIAcore, AB, Uppsala, Sweden) to form activated carboxyl groups. In the BIAcore protocol the binding is believed to be between carboxyl groups on the surface and amine groups on the protein. The actin solution (15 μg/ml) was then run over the chip for 5 min at a rate of 10 μl/min, where the amine groups on protein react with the activated esters. In the final stage of immobilization, the surface was blocked by 1M ethanol amine, pH 8.0. The binding assay was performed by injecting the hRNASET2, trT2-50, trT2-50m or peptides solutions in running buffer (HBS-10mM Hepes, 150mM Sodium Chloride, 3mM EDTA, 0.005% Polysorbate 20) at 5 different concentrations at a flow rate of 10 μl/min at 25°C. Injections were performed simultaneously over all four channels and blank surface a plain dextran matrix (channel 1) was used as control. The net signal was obtained by subtracting the blank signal from the signal of the immobilized surface. The association phase for protein or peptides binding to actin was followed for 4 min, and dissociation phases were monitored for 3 min. Surface regeneration between consecutive binding cycles included a 1 min injection of 1 mM NaOH. The response was monitored as a function of time (sensorgram) at 25°C. Multi-concentration data were globally fit using BIA evaluation 3.2 software.\nThe strength of a two molecule interaction is characterized by the equilibrium dissociation (binding) constant KD =[P][L]/[PL], where [P] is the concentration of free protein (or peptide), [L] the concentration of ligand and [PL] the concentration of the complex. At equilibrium, KD is related to the rate of complex formation (described by the association rate constant, ka) and the rate of breakdown (described by the dissociation rate constant, kd ), such that KD =[…]. A high affinity interaction is characterized by a low KD, rapid recognition and binding by high ka, and stability of complex formation by low kd."}, "HUVECs": {"tested_on": "HUVECs", "assay": "Immunofluorescence: localization and co-localization of peptide and angiogenin in HUVECs", "format": "cell-based, human", "details": "anti-angiogenin (red)", "method": "Cells were cultured on PBS-covered slides in 12-well plates with 0.1% pork gelatin (Sigma-Aldrich) and were incubated with peptide K108-K133 or angiogenin. Cells were fixed with 3% Paraformaldehyde (PFA) (Merck Millipore, Dermstadt, Germany) containing 0.5% triton, washed three times with PBS and blocked with 5% donkey serum (Jackson ImmunoResearch). Rabbit anti-angiogenin (Merck Millipore) was added (1:100 dilution; prepared in 5% donkey serum) and incubated overnight at 4°C. After washing three times with TBST, the slides were incubated for 1 h with Alexa 488-conjugated anti-rabbit antibody (Invitrogen Life Technologies) and phalloidin tetramethylrhodamine B isothiocyanate–conjugated […] (Sigma-Aldrich), and then washed, and mounted with a mixture containing 30% mounting medium, 4′,6-diamidino-2-phenylindole (DAPI) (Santa Cruz Biotechnology Inc., Santa Cruz, CA) and 70% fluoromount (Sigma-Aldrich). The slides were viewed under a Leicactr4000 laser scanning confocal microscope."}, "CAM": {"tested_on": "CAM", "assay": "Ex ovo CAM angiogenesis assay", "format": "in vivo, chicken", "details": "3 μg on filter paper disk every day for 4 days from day 8, vs PBS; N=3 for hRNASET2 and trT2-50, N=5 for peptides and PBS", "method": "In this assay we used fertilized eggs cracked into a petri dish after […] of incubation in 37°C and 60% humidity. In the following days, the embryos developed a vascular network. Treatment began on the eighth day of incubation and was delivered drop-wise onto disks of Whatman paper that had been placed on the developing vascular regions. The treatment was performed every day for 4 days. The number of blood vessels around the treated disk was counted every day.\nFertilized chicken eggs were incubated horizontally at 37°C and humidity of 60 - 62% and cracked into Petri dishes at embryonic day 4. Incubation was continued under the same conditions. On day 8, sterile filter paper disks (5.5 mm in diameter) were layered on top of the CAM and soaked either with 5 μl PBS or 3 μg hRNASET2, trT2-50, peptide A103-Q159 or peptide K108-K133. Treatment was given every day for four days, then, the number of blood vessels around the treated disks was counted. (For hRNASET2 and trT2-50, N=3; for peptide A103-Q159, peptide K108-K133 and PBS, N=5)."}, "actin": {"molecular_target": "actin (Oryctolagus cuniculus, UniProt P68135)", "assay": "Actin binding solid phase assay (ELISA)", "details": "from 500 ng/well, 1 h at 37°C, discussion also refers to BIAcore", "source_text": "For further insight on the actin binding site within the hRNASET2 protein sequence we tested 29 suspected peptides for their ability to bind actin. The actin-binding capability of the 29 synthetic peptides was compared to the binding capability of trT2-50 using a solid phase actin binding assay. […] We next tested the interaction kinetics to evaluate the interaction nature as described for trT2-50 and trT2-50m. […] In addition, there is a linear relation between the protein concentration and the maximal (steady-state) response for peptides A103-Q159 and K108-K133, indicating the pseudo-first-order regime in relation to the immobilized actin.\n96-well plates (MaxiSorp® flat-bottom 96-well plate, Fisher Scientific Inc., Fair Lawn, NJ) were coated with 500 ng actin in 100 μl carbonate-bicarbonate buffer (pH 9.5) for 1 h at 37°C. The plate was washed once with TBS and then blocked with 3% BSA in 200 μl TBS buffer at 37°C, for 1 h. Wells were then washed once with 250 μl TBS. trT2-50, trT2-50m or each of the 29 peptides were added at 1:2 dilutions in 100 μl TBS, starting from 500 ng/well, incubated for 1 h at 37°C and then washed three times with TBS containing 0.1% Tween-20 (TBST). […] Absorbance at 655 nm was measured 10 min thereafter using a Power Wave 200 Microplate Scanning Spectrophotometer (Bio-Tek Instrument, Winooski, VT). Affinity was evaluated by double reciprocal plot."}, "[2]": {"tested_on": "HUVEC (angiogenin-induced tube formation)", "assay": "HUVEC tube formation assay on Matrigel, angiogenin-induced", "format": "cell-based, human", "details": "2 μM, angiogenin 1 μg/ml, 8 h, vs PBS control, N=5", "method": "(§1) Figure 4 trT2-50m and peptides A103-Q159 (57aa) and K108-K133 (26aa) inhibit angiogenin- and VEGF-induced HUVEC tube formation on Matrigel Freshly isolated HUVECs were plated in a 96-well plate previously coated with Matrigel. (A): Cells were treated with either peptide A103-Q159, K108-K133 or K108-L123 (2μM) or PBS (control), in addition to angiogenin or VEGF (1 μg/ml). (B): tube formation was assessed using Image J, the results are represented as percent of control. […] (C): Cells were treated with trT2-50m (2μM) or PBS (control), in addition to angiogenin or VEGF (1 μg/ml).\n(§2) Freshly isolated HUVEC were maintained in endothelial cell growth medium (EGM) supplemented with SingleQuots (EGM BulletKit CC-3124, Lonza). They were then plated in a 96-well plates (14 × 10^3 cells/well) previously coated with growth factor-depleted Matrigel (Becton-Dickinson, Bedford, MA) in M199 medium supplemented with 20% FBS, 1% glutamine, 1% antibiotic–antimycotic solution (Biological Industries) and 50 U/100 ml heparin (Biomedical Technologies Inc., Stoughton, MA). Cells were treated with trT2-50m (2 μM), peptides or PBS, in addition to angiogenin (R&D Systems, Inc. Minneapolis, MN), or VEGF (Protein Laboratories, Rehovot, Israel) (1 μg/ml each). After 8 h of incubation at 37°C, the plates were photographed and the extent of tube formation was counted using Image J (NIH, Bethesda, MD) software. […]"}, "[3]": {"tested_on": "HUVEC (VEGF-induced tube formation)", "assay": "HUVEC tube formation assay on Matrigel, VEGF-induced", "format": "cell-based, human", "details": "2 μM, VEGF 1 μg/ml, 8 h, vs PBS control, N=5", "method": "as §1, §2"}}, "data": [{"compound": "CC[C@H](C)[C@H](NC(=O)CNC(=O)[C@H](CC(C)C)NC(=O)[C@H](CCCCN)NC(=O)[C@H](CC(C)C)NC(=O)[C@H](CC(C)C)NC(=O)[C@@H](NC(=O)[C@H](CO)NC(=O)[C@H](CC(N)=O)NC(=O)[C@H](CC(C)C)NC(=O)[C@H](CC(=O)O)NC(=O)[C@H](CC(C)C)NC(=O)[C@H](CCC(=O)O)NC(=O)[C@H](CCCNC(=N)N)NC(=O)[C@H](Cc1ccc(O)cc1)NC(=O)[C@H](CC(C)C)NC(=O)[C@H](CCC(=O)O)NC(=O)[C@H](CC(C)C)NC(=O)[C@H](CO)NC(=O)[C@H](CCCNC(=N)N)NC(=O)CNC(=O)[C@H](Cc1ccccc1)NC(=O)[C@H](Cc1ccc(O)cc1)NC(=O)[C@H](CCCCN)NC(=O)[C@@H](N)CCCCN)C(C)C)C(=O)N[C@@H](CCCCN)C(=O)O", "note": "[Peptide K108-K133]", "values": [{"measurement": "kon", "setting": "[1]; HBS (10mM Hepes, 150mM NaCl, 3mM EDTA, 0.005% Polysorbate 20), association 4 min, dissociation 3 min, global fit BIAevaluation 3.2, read-out: association rate Ka", "result": 14200, "unit": "M⁻¹ s⁻¹"}, {"measurement": "koff", "setting": "[1]; HBS (10mM Hepes, 150mM NaCl, 3mM EDTA, 0.005% Polysorbate 20), dissociation 3 min, global fit BIAevaluation 3.2, read-out: dissociation rate Kd", "result": 0.0458, "unit": "s⁻¹"}]}, {"compound": "angiogenin: angiogenin (R&D Systems, Inc. Minneapolis, MN)", "values": [{"measurement": "localization of angiogenin in presence of peptide K108-K133", "setting": "HUVECs; 2 and 8 h of incubation with the peptide and angiogenin", "result": "Same angiogenin localization was observed after 2 and 8 h"}, {"measurement": "localization of angiogenin in presence of peptide K108-K133", "setting": "HUVECs; 10 min of incubation with the peptide and angiogenin", "result": "located in the nucleus, the cytoplasm surrounding the nucleus, on the actin fibers and outside the cell"}]}, {"compound": "hRNASET2: full-length human RNASET2, produced in CHO, T2BIOTECH Ltd", "values": [{"measurement": "association rate Ka", "setting": "[1]; HBS (10mM Hepes, 150mM NaCl, 3mM EDTA, 0.005% Polysorbate 20), association 4 min, dissociation 3 min, global fit BIAevaluation 3.2", "result": "2.40 × 10^3 (1/Ms)"}, {"measurement": "dissociation rate Kd", "setting": "[1]; HBS (10mM Hepes, 150mM NaCl, 3mM EDTA, 0.005% Polysorbate 20), dissociation 3 min, global fit BIAevaluation 3.2", "result": 0.00346, "unit": "s⁻¹"}, {"measurement": "Kd", "setting": "[1]; HBS, determined from kinetic analyses, BIAevaluation 3.2, read-out: dissociation constant KD", "result": 1.44, "unit": "µM"}, {"measurement": "blood vessels around the treated disk", "setting": "CAM", "result": "fewer blood vessels developed compared to the control"}]}, {"compound": "Peptide K108-L123: peptide K108-L123 (16 aa) that failed to bind actin", "values": [{"measurement": "ability to bind actin (in words)", "setting": "actin", "result": "failed to bind actin"}, {"measurement": "inhibition of angiogenin-induced tube formation (in words)", "setting": "[2]", "result": "unable to inhibit tube formation"}, {"measurement": "inhibition of VEGF-induced tube formation (in words)", "setting": "[3]", "result": "unable to inhibit tube formation"}]}]}
